Test results as given in ChEMBL document CHEMBL4373664, “Importance of lipophilicity for potent anti-herpes simplex virus-1 activity of α-hydroxytropolones” (Medchemcomm, 2019).
Calls of active or inactive are those of the source. No cut-off for these calls is given here.

Columns and labels:
Human alphaherpesvirus 1 [1] = test: Antiviral activity against HSV-1 infected in African green monkey Vero cells assessed as suppression of viral replication at 0.2 uM after 24 hrs by plaque reduction assay based phase contrast microscopy; format: functional
Human alphaherpesvirus 1 [2] = test: Antiviral activity against HSV-1 infected in African green monkey Vero cells assessed as suppression of viral replication at 1 uM after 24 hrs by plaque reduction assay based phase contrast microscopy; format: functional
Human alphaherpesvirus 1 [3] = test: Antiviral activity against HSV-1 infected in African green monkey Vero cells assessed as suppression of viral replication at 5 uM after 24 hrs by plaque reduction assay based phase contrast microscopy; format: functional
Human alphaherpesvirus 1 [4] = test: Antiviral activity against HSV-1 infected in African green monkey Vero cells assessed as suppression of viral replication after 24 hrs by plaque reduction assay based phase contrast microscopy; format: functional, organism-based; details: Human alphaherpesvirus 1, Vero
[5] = Cytotoxicity against African green monkey Vero cells incubated for 24 hrs by MTT assay; format: cell-based; details: chlorocebus sabaeus
[6] = Therapeutic index, ratio of CC50 for African green monkey Vero cells to EC50 for HSV-1 infected in African green monkey Vero cells; format: toxicity; details: read-out: Ratio CC50/EC50
[7] = Inhibition of NTS in HSV-1 infected in African green monkey Vero cells assessed as suppression of viral replication by measuring viral titer after 24 hrs by plaque reduction assay based phase contrast microscopy; format: cell-based; details: Human alphaherpesvirus 1, Vero
[8] = Inhibition of NTS in HSV-2 infected in African green monkey Vero cells assessed as suppression of viral replication by measuring viral titer after 24 hrs by plaque reduction assay based phase contrast microscopy; format: cell-based; details: Human alphaherpesvirus 2, Vero
[9] = Cytotoxicity against African green monkey Vero cells incubated for 72 hrs by MTS assay; format: cell-based; details: chlorocebus sabaeus
Human alphaherpesvirus 1 [10] = test: Antiviral activity against HSV-1 infected in African green monkey Vero cells assessed as suppression of viral replication at 1 uM after 24 hrs by plaque reduction assay based phase contrast microscopy relative to control; format: functional

Compound | log(activity) (Human alphaherpesvirus 1 [1]) | log(activity) (Human alphaherpesvirus 1 [2]) | log(activity) (Human alphaherpesvirus 1 [3]) | EC50 (Human alphaherpesvirus 1 [4]) | CC50 at 24 h [5] | selectivity ratio [6] | EC50 [7] | EC50 [8] | CC50 at 72 h [9] | fold change (FC) (Human alphaherpesvirus 1 [10])
Cc1cc(O)c(=O)c(O)cc1C(=O)c1ccc(-c2ccc3ccccc3c2)cc1 | 1.34 | 3.54 | 4.28 |  |  |  |  |  |  | 
Cc1cc(O)c(=O)c(O)cc1C(=O)c1ccccc1 | inactive | 0.11 | 4.21 |  |  |  |  |  |  | 
Cc1cc(O)c(=O)c(O)cc1C(=O)c1cccc([N+](=O)[O-])c1 | 0.23 | 0.9 | 4.2 |  |  |  |  |  |  | 
Cc1cc(O)c(=O)c(O)cc1C(=O)C1CCCCC1 | 0.62 | 0.76 | 5.14 | 0.63 µM | 73 µM | 116 |  |  |  | 
COc1ccc(C(=O)c2cc(O)c(=O)c(O)cc2C)cc1 | 0.02 | 0.92 | 3.94 |  |  |  |  |  |  | 
Cc1cc(O)c(=O)c(O)cc1C(=O)c1cccc(-c2cccc3ccccc23)c1 | 0.15 | 3.15 | 4.6 |  |  |  |  |  |  | 
Cc1cc(O)c(=O)c(O)cc1C(=O)c1cccc(Br)c1 | 0.09 | 0.21 | 5.46 |  |  |  |  |  |  | 
Cc1cc(O)c(=O)c(O)cc1-c1cccc(-c2cccc3ccccc23)c1 | 0.04 | 4 | 4.02 |  |  |  |  |  |  | 
Cc1cc(O)c(=O)c(O)cc1C(=O)c1ccc(Br)cc1 | 0.09 | 0.42 | 5.4 |  |  |  |  |  |  | 
Cc1cc(O)c(=O)c(O)cc1-c1cccc(-c2ccc3ccccc3c2)c1 | 0.06 | 0.66 | 4.1 |  |  |  |  |  |  | 
CC(C)=CCc1ccc(=O)c(O)cc1C(C)C |  |  |  |  | 100 µM |  | 0.24 µM | 0.22 µM |  | 
CCCCCCCC(=O)c1cc(O)c(=O)c(O)cc1C | 0.13 | 0.2 | 4.84 | 0.44 µM | 81 µM | 185 |  |  |  | 
CCCCCCCCCC(=O)c1cc(O)c(=O)c(O)cc1C | inactive | 0.07 | 3.78 | 1.1 µM | > 100 µM | > 92 |  |  |  | 
Cc1cc(O)c(=O)c(O)cc1C(=O)c1ccc(-c2ccccc2)cc1 | 0.43 | 4.86 | 4.72 | 0.17 µM | > 100 µM | > 600 | 0.12 µM | 0.081 µM | > 100 µM | 
Cc1cc(O)c(=O)c(O)cc1C(=O)c1ccccc1O | 0.1 | 0.86 | 3.86 |  |  |  |  |  |  | 
Cc1cc(O)c(=O)c(O)cc1C(=O)c1cccs1 | 0.16 | -0.06 | 0.92 |  |  |  |  |  |  | 

Compound | log(activity) (Human alphaherpesvirus 1 [1]) | log(activity) (Human alphaherpesvirus 1 [2]) | log(activity) (Human alphaherpesvirus 1 [3]) | EC50 (Human alphaherpesvirus 1 [4]) | CC50 at 24 h [5] | selectivity ratio [6] | EC50 [7] | EC50 [8] | CC50 at 72 h [9] | fold change (FC) (Human alphaherpesvirus 1 [10])
Cc1cc(O)c(=O)c(O)cc1C(=O)c1ccco1 | -0.1 | 0.41 | 4.52 |  |  |  |  |  |  | 
Cc1cc(O)c(=O)c(O)cc1-c1cccc(-c2ccccc2)c1 | 0.02 | 4.26 | 4.28 |  |  |  |  |  |  | 
CC(C)c1ccc(O)c(=O)c(O)c1 [BETA-THUJAPLICINOL] |  |  |  |  | > 100 µM |  | 2 µM | 1.7 µM |  | 
CCCCCCCCCCCCCC(=O)c1cc(O)c(=O)c(O)cc1C | 0.36 | 1.58 | 4.31 | 0.14 µM | 91 µM | 631 |  |  |  | >10
Cc1cc(O)c(=O)c(O)cc1-c1ccc(-c2ccccc2)cc1 | -0.05 | 4.09 | 4.08 |  | > 100 µM |  | 0.18 µM | 0.21 µM | > 100 µM | 
Cc1cc(O)c(=O)c(O)cc1S(=O)(=O)c1ccc(-c2ccccc2)cc1 | inactive | -0.34 | 4.44 |  |  |  |  |  |  | 
Cc1cc(O)c(=O)c(O)cc1-c1ccc(-c2ccc3ccccc3c2)cc1 | -0.03 | 0.57 | 4.15 |  |  |  |  |  |  | 
C=C(C)[C@@H]1CCc2c(c(C)cc(O)c(=O)c2O)C1 |  |  |  |  | 100 µM |  | 0.35 µM | 0.58 µM |  | 
Cc1cc(O)c(=O)c(O)cc1C(=O)c1cccc(-c2ccc3ccccc3c2)c1 | 0.14 | 3.03 | 4.11 |  |  |  |  |  |  | 
Cc1cc(O)c(=O)c(O)cc1C(=O)c1ccc2ccccc2c1 | 0.28 | 3.82 | 4.08 |  |  |  |  |  |  | >10
Cc1cc(O)c(=O)c(O)cc1S(=O)(=O)c1ccccc1 | inactive | 0.81 | 0.34 |  |  |  |  |  |  | 
Cc1cc(O)c(=O)c(O)cc1C(=O)c1ccc2ccc3cccc4ccc1c2c34 | 0.93 | 5.01 | 5.76 | 0.06 µM | > 100 µM | > 1800 |  |  |  | 
Cc1cc(O)c(=O)c(O)cc1C(=O)C(C)C | inactive | inactive | -0.01 | 26 µM | 91 µM | 3.6 |  |  |  | 
CC(=O)c1cc(O)c(=O)c(O)cc1C | inactive | inactive | 0.48 | 1.2 µM | > 100 µM | > 83 |  |  |  | 
CCCCCCCCCCCC(=O)c1cc(O)c(=O)c(O)cc1C | 0.29 | 3.23 | 4.84 | 0.35 µM | 95 µM | 255 |  |  |  | >10
Cc1cc(O)c(=O)c(O)cc1C(=O)c1ccc([N+](=O)[O-])cc1 | 0.03 | 0.6 | 3.91 |  |  |  |  |  |  | 
